Data from ChEMBL document CHEMBL3885881, “DrugMatrix”.

Organism: Rattus norvegicus
Experiment: DrugMatrix - Regimen: Daily Repeat
Type: toxicity, organism-based, Sprague-Dawley
Set-up: regimen Daily Repeat, gender Male, age 6-8 weeks
Settings: in vivo, po, 0 mg/kg, route oral GAVAGE, dose level Control; for ABSOLUTE EOSINOPHIL / ABSOLUTE LYMPHOCYTE / ABSOLUTE MONOCYTE / ABSOLUTE SEGMENTED NEUTROPHIL / EOSINOPHIL / ERYTHROCYTE COUNT / HEMATOCRIT / HEMOGLOBIN / LEUKOCYTE COUNT / LYMPHOCYTE / MEAN CORPUSCULAR HEMOGLOBIN / MEAN CORPUSCULAR HEMOGLOBIN CONCENTRATION / MEAN CORPUSCULAR VOLUME / MONOCYTE / NEUTROPHIL / NUCLEATED RED BLOOD CELLS / PLATELET COUNT / ABSOLUTE BASOPHIL / BASOPHIL: tissue Blood
[1] = 72 h, time 3 day, vehicle 100 % SALINE
[2] = 72 h, time 3 day, vehicle 100 % WATER
[3] = 72 h, tissue Plasma, time 3 day, vehicle 100 % SALINE
[4] = 72 h, tissue Plasma, time 3 day, vehicle 100 % WATER
[5] = 120 h, time 5 day, vehicle 100 % SALINE
[6] = 120 h, time 5 day, vehicle 100 % WATER

CCCc1nn(C)c2c(=O)[nH]c(-c3cc(S(=O)(=O)N4CCN(C)CC4)ccc3OCC)nc12
ABSOLUTE EOSINOPHIL [1]: 37 CELLS/uL
ABSOLUTE LYMPHOCYTE [1]: 12359.33 CELLS/uL
ABSOLUTE MONOCYTE [1]: 122.67 CELLS/uL
ABSOLUTE SEGMENTED NEUTROPHIL [1]: 847.67 CELLS/uL
EOSINOPHIL [1]: 0.33%
ERYTHROCYTE COUNT [1]: 5.75 x10E6/uL
HEMATOCRIT [1]: 36.08%
HEMOGLOBIN [1]: 14.07 G/DL
LEUKOCYTE COUNT [1]: 13.37 x10E3/uL
LYMPHOCYTE [1]: 92.5%
MEAN CORPUSCULAR HEMOGLOBIN [1]: 24.47 pg
MEAN CORPUSCULAR HEMOGLOBIN CONCENTRATION [1]: 38.98 G/DL
MEAN CORPUSCULAR VOLUME [1]: 62.78 fL
MONOCYTE [1]: 1%
NEUTROPHIL [1]: 6.17%
NUCLEATED RED BLOOD CELLS [1]: 0.17 /100WBC
PLATELET COUNT [1]: 1202.17 x10E3/uL
ABSOLUTE BASOPHIL [2]: 0 CELLS/uL
ABSOLUTE EOSINOPHIL [2]: 0 CELLS/uL
ABSOLUTE LYMPHOCYTE [2]: 7802.17 CELLS/uL
ABSOLUTE MONOCYTE [2]: 13.5 CELLS/uL
ABSOLUTE SEGMENTED NEUTROPHIL [2]: 617.67 CELLS/uL
BASOPHIL [2]: 0%
EOSINOPHIL [2]: 0%
ERYTHROCYTE COUNT [2]: 5.35 x10E6/uL
HEMATOCRIT [2]: 33.02%
HEMOGLOBIN [2]: 12.88 G/DL
LEUKOCYTE COUNT [2]: 8.43 x10E3/uL
LYMPHOCYTE [2]: 92.67%
MEAN CORPUSCULAR HEMOGLOBIN [2]: 24.12 pg
MEAN CORPUSCULAR HEMOGLOBIN CONCENTRATION [2]: 39.03 G/DL
MEAN CORPUSCULAR VOLUME [2]: 61.8 fL
MONOCYTE [2]: 0.17%
NEUTROPHIL [2]: 7.17%
NUCLEATED RED BLOOD CELLS [2]: 0 /100WBC
PLATELET COUNT [2]: 1124.83 x10E3/uL
ALANINE AMINOTRANSFERASE [3]: 50.67 u/L
ALBUMIN [3]: 4.13 G/DL
ALKALINE PHOSPHATASE [3]: 356.33 u/L
ASPARTATE AMINOTRANSFERASE [3]: 78.17 u/L
BLOOD UREA NITROGEN [3]: 14.17 mg/dL
CARBON DIOXIDE [3]: 31.33 mmol/L
CHLORIDE [3]: 98.5 MEQ/L
CHOLESTEROL [3]: 76.5 mg/dL
CREATINE PHOSPHOKINASE [3]: 248.33 u/L
CREATININE [3]: 0.2 mg/dL
GLUCOSE [3]: 144 mg/dL
LACTATE DEHYDROGENASE [3]: 107 u/L
LIPASE [3]: 9.83 u/L
PHOSPHORUS [3]: 12.8 mg/dL
POTASSIUM [3]: 6.75 MEQ/L
SODIUM [3]: 142 MEQ/L
TOTAL PROTEIN [3]: 5.98 G/DL
URIC ACID [3]: 1.42 mg/dL
ALANINE AMINOTRANSFERASE [4]: 54.17 u/L
ALBUMIN [4]: 4.07 G/DL
ALKALINE PHOSPHATASE [4]: 383.83 u/L
ASPARTATE AMINOTRANSFERASE [4]: 82.17 u/L
BLOOD UREA NITROGEN [4]: 13.67 mg/dL
CARBON DIOXIDE [4]: 31 mmol/L
CHLORIDE [4]: 100.83 MEQ/L
CHOLESTEROL [4]: 65.17 mg/dL
CREATINE PHOSPHOKINASE [4]: 228.33 u/L
CREATININE [4]: 0.12 mg/dL
GLUCOSE [4]: 148 mg/dL
LACTATE DEHYDROGENASE [4]: 97.83 u/L
LIPASE [4]: 9.17 u/L
PHOSPHORUS [4]: 9.75 mg/dL
POTASSIUM [4]: 5.85 MEQ/L
SODIUM [4]: 147.02 MEQ/L
TOTAL BILIRUBIN [4]: 0.18 mg/dL
TOTAL PROTEIN [4]: 6.1 G/DL
URIC ACID [4]: 0.5 mg/dL
ABSOLUTE LYMPHOCYTE [5]: 8681.17 CELLS/uL
ABSOLUTE MONOCYTE [5]: 79.83 CELLS/uL
ABSOLUTE SEGMENTED NEUTROPHIL [5]: 689 CELLS/uL
HEMATOCRIT [5]: 33.55%
HEMOGLOBIN [5]: 13.1 G/DL
LEUKOCYTE COUNT [5]: 9.45 x10E3/uL
LYMPHOCYTE [5]: 92.33%
MEAN CORPUSCULAR HEMOGLOBIN [5]: 23.92 pg
MEAN CORPUSCULAR HEMOGLOBIN CONCENTRATION [5]: 39.07 G/DL
MEAN CORPUSCULAR VOLUME [5]: 61.22 fL
MONOCYTE [5]: 0.67%
NEUTROPHIL [5]: 7%
PLATELET COUNT [5]: 1001.17 x10E3/uL
ABSOLUTE BASOPHIL [6]: 0 CELLS/uL
ABSOLUTE EOSINOPHIL [6]: 0 CELLS/uL
ABSOLUTE LYMPHOCYTE [6]: 10538 CELLS/uL
ABSOLUTE MONOCYTE [6]: 15.83 CELLS/uL
ABSOLUTE SEGMENTED NEUTROPHIL [6]: 762.83 CELLS/uL
BASOPHIL [6]: 0%
